Results published in patent US8796268B2, “Heteroaryls and uses thereof” (Millennium Pharmaceuticals, Inc., priority 2010, dated 2014).

Columns and labels:
Human PI3K beta = molecular target: T1, Human PI3K beta (Homo sapiens, UniProt P42338); assay: Human PI3K beta enzyme assay (HTRF); assay type: biochemical; details: read-out: PI3 Kbeta IC50
T1 construct: His (N); host or cells: SF9 insect cells (baculovirus)
Excerpt: (§1) The catalytic subunits of PI3Ks are cloned into either pDEST8(p110 alpha) or pDEST10(p110beta, p110delta, and p110gamma) as N-terminal His tagged fusion proteins using the Gateway system (Invitrogen, catalog#11804-010 for pDEST8 and 11806-015 for pDEST10). The sequences are verified before recombinant protein expression using the Baculovirus Expression System with Gateway® Technology. The accession numbers for the subunits are as follows: • p110 alpha (GB:U79143) • p110beta (GB: S67334) • p110delta (GB: U86453) • p110gamma (GB: X83368) • The regulatory subunits of PI3Ks are cloned into pDEST8 as un-tagged protein using the Gateway system (Catalog#11804-010). The sequences are verified before recombinant protein expression using the Baculovirus Expression System with Gateway® Technology. The accession numbers for the subunits are as following: • p85 alpha (GB: BC030815) • p101(GB: AB028925) • VPS34 (accession number GB:BC033004) is cloned into pDEST20—Thombin as N-terminal GST tagged fusion proteins using the Gateway system (Invitrogen, catalog#11804-013). The sequences are verified before recombinant protein expression using the Baculovirus Expression System with Gateway® Technology.
(§2) For expression of the p110 complexes, the p85 (MOI of 4) is co-infected with p110 alpha, beta, and delta respectively (1MOI) in SF9 cells and harvested at 60 hours post co-infection. P110 gamma was infected at 1 MOI and harvested at 60 hours post infection.
(§3) For purification, PI3Ks are purified by Ni-NTA Agarose (Qiagen #30250) followed by Mono Q 10/100 GL (Ge Healthcare #17-5167-01). VPS34 is purified by Glutathione Sepharose 4 Fast Flow (GE Healthcare #17-5132-03) followed by HiTrap Q (GE Healthcare #17-1153-01).
(§4) 0.5 uL compounds in DMSO are added to wells of a 384 well microtitre plate (Corning 3575). At room temperature: 10 ul PI3K reaction buffer (50 mM Hepes, 5 mM DTT, 150 mM NaCl, 10 mM beta-glycerophosphate, 10 mM MgCl2, 0.25 mM sodium cholate and 0.001% CHAPS, pH 7.00) containing ATP (25 uM, Promega) is added followed immediately by 10 ul PI3K reaction buffer containing di-C8 P1(4,5)P2 (3.5 uM, CellSignals) and PI3Kalpha (0.4875 nM, Millennium Protein Sciences Group) and the mixture is incubated with shaking at room temperature for 30 minutes. Then 5 ul PI3K stop mix (50 mM Hepes, 5 mM DTT, 150 mM NaCl, 0.01% Tween-20, 15 mM EDTA and 25 nM biotin-PI(3,4,5)P3 (Echelon) is added to quench the reaction followed immediately by addition of 5 ul HTRF detection mix (50 mM Hepes, 5 mM DTT, 150 mM NaCl, 0.01% Tween-20, 40 mM KF, 1.0 nM GST:GRP-1 PH domain (Millennium Protein Sciences Group), 15 nM Streptavidin-XL (CisBio) and 0.375 nM anti-GST Eu++ antibody (CisBio) at pH 7.00). The plates are then incubated for 1 hour at room temperature with shaking and then read on a BMG PheraStar Plus reader.
2) Human PI3K beta, delta and gamma isoforms are tested using the procedure described for PI3K alpha above but with the following changes: PI3K beta (5.25 nM), PI3K delta (0.75 nM) and PI3K gamma (5 nM). All isoforms supplied by Millennium Protein Science Group.
(§5) For the assay methods described above, test compound percent inhibition, at various concentrations, is calculated relative to control (DMSO and EDTA) treated samples. Compound concentration versus percent inhibition curves are fitted to generate IC50 values. One skilled in the art will appreciate that the values generated either as percentage inhibition at a single concentration or IC50 values are subject to experimental variation.

Human PI3K alpha = molecular target: T2, Human PI3K alpha (Homo sapiens, UniProt P42336); assay: Human PI3K alpha enzyme assay (HTRF); assay type: biochemical; details: read-out: PI3Kalpha IC50
T2 construct: His (N); host or cells: SF9 insect cells (baculovirus)
Excerpt: as §1, §2, §3
1) Human PI3K alpha enzyme assay method
as §4, §5

T1 sequence (P42338 whole entry): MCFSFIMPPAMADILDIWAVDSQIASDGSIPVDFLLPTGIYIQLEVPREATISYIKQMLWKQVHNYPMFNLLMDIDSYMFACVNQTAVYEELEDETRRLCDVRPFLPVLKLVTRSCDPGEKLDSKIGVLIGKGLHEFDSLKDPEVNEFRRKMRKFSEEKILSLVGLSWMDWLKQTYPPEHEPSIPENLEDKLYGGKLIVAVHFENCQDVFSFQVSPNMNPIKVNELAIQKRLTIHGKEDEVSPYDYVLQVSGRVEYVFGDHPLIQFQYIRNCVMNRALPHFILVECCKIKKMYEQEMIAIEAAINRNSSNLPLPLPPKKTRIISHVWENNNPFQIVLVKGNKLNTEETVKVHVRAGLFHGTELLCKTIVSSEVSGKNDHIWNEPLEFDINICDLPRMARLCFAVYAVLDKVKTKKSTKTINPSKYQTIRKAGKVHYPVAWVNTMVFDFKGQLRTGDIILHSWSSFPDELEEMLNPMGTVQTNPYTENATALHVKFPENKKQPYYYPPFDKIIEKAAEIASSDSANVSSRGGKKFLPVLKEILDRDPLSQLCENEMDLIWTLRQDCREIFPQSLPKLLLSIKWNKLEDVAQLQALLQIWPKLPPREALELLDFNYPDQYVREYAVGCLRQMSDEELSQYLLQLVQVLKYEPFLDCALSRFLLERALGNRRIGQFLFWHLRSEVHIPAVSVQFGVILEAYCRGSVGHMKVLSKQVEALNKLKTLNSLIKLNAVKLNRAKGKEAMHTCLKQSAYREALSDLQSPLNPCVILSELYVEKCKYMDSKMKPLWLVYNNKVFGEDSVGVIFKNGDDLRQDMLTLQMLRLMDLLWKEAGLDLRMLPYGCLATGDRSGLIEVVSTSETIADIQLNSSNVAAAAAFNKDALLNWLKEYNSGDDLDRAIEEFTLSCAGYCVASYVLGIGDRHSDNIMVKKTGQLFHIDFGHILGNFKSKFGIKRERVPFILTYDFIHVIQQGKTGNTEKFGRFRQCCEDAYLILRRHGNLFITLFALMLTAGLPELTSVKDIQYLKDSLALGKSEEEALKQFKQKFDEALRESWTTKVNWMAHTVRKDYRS
T1 sequence (P27986 whole entry partner): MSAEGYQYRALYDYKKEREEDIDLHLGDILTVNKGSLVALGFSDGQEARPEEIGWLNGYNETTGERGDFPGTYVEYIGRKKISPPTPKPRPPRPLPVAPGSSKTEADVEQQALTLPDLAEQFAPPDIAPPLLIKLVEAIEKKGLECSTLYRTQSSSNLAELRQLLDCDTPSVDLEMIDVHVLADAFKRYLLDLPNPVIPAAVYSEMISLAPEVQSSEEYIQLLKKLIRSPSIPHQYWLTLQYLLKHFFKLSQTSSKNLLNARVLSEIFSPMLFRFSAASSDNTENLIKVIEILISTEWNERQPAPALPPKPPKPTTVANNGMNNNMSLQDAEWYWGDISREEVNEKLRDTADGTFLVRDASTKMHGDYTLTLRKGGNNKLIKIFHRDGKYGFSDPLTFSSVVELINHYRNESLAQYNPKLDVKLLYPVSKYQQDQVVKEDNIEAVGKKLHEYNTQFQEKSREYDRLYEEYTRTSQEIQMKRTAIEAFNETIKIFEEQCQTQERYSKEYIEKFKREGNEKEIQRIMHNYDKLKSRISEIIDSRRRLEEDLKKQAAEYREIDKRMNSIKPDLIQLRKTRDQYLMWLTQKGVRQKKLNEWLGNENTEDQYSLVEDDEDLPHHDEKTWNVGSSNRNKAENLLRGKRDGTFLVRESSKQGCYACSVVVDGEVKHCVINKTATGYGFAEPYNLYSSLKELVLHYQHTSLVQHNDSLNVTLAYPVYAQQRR
T2 sequence (P42336 whole entry): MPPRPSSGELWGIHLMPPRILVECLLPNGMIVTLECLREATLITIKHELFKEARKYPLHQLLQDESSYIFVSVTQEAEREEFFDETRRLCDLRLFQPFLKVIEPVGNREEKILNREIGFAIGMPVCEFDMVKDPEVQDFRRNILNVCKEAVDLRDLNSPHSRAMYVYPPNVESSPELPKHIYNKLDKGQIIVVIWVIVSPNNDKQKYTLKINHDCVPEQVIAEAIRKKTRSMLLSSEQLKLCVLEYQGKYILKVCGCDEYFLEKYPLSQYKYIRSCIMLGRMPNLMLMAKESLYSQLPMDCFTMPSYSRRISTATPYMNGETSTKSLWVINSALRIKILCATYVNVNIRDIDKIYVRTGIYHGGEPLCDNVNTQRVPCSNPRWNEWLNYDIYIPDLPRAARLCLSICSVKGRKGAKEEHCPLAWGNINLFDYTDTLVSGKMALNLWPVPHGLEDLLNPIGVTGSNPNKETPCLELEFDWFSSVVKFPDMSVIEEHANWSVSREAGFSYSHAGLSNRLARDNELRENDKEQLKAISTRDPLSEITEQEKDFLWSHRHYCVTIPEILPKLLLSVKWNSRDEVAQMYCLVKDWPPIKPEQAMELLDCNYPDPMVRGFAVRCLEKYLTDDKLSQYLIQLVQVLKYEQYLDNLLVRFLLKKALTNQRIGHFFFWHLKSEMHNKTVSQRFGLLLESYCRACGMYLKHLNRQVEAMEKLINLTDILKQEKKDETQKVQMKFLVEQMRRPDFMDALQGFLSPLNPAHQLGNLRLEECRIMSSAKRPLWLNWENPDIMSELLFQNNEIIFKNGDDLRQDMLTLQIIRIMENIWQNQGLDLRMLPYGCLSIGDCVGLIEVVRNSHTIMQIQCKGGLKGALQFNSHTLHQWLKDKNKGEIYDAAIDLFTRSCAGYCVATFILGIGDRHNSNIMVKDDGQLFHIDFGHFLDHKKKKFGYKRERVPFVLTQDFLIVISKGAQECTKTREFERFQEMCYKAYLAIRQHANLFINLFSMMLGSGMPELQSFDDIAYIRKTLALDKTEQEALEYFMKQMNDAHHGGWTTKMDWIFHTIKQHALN
T2 sequence (P27986 whole entry partner): as the sequence (P27986 whole entry partner) above

Row | Compound | IC50 (Human PI3K beta) [nM] | IC50 (Human PI3K alpha) [nM]
1 | Cc1nn2ccc(CNC(=N)N)cc2c1-c1nc(Cc2ccc(Cl)cc2)c(-c2nnc[nH]2)s1 [Compound 35, N-({3-[4-(4-chlorobenzyl)-5-(4H-1,2,4-triazol-3-yl)-1,3-thiazol-2-yl]-2-methylpyrazolo[1,5-a]pyridin-5-yl}methyl)guanidine] | 100 to 1000 | 100 to 1000
2 | N#Cc1c(-c2ccncc2)sc(C(=O)O)c1Cc1ccc(Cl)cc1 [Compound 36] | < 100 | > 1000
3 | Fc1cc(-c2nc(Cc3ccc(Cl)cc3)c(-c3nnc[nH]3)s2)ccn1 [Compound 37] | 100 to 1000 | > 1000
4 | Cc1nn2ccc(CNCCCN)cc2c1-c1nc(Cc2ccc(Cl)cc2)c(-c2nnc[nH]2)s1 [Compound 38] | 100 to 1000 | 100 to 1000
5 | Clc1ccc(Cc2nc(-c3ccnnc3)sc2-c2nnc[nH]2)cc1 [Compound 39] | 100 to 1000 | > 1000
6 | CC(=O)Nc1cc(-c2cc(C(O)c3ccc(Cl)cc3)c(-c3nnc[nH]3)s2)ccn1 (stereo not shown) [Compound 41] | < 100 | < 100
7 | OC(c1ccc(Cl)cc1)c1cc(-c2ccnc3ccccc23)sc1-c1nnc[nH]1 (stereo not shown) [Compound 42] | 100 to 1000 | 100 to 1000
8 | Cc1cc(-c2cc([C@H](O)c3ccc(Cl)cc3)c(-c3nnc[nH]3)s2)ccn1 [Compound 43] | < 100 | > 1000
9 | CN(C)[C@H](c1ccc(Cl)cc1)c1cc(-c2ccncc2)sc1-c1nnc[nH]1 [Compound 44] | < 100 | > 1000
10 | O[C@H](c1ccc(Cl)cc1)c1cc(-c2ccnc(F)c2)sc1-c1nnc[nH]1 [Compound 45] | < 100 | > 1000
11 | Cc1noc(C)c1-c1nc(Cc2ccc(Cl)cc2)c(-c2nnc[nH]2)s1 [Compound 46] | 100 to 1000 | > 1000
12 | Clc1ccc(Cc2nc(-c3ccnc(Cl)c3)sc2-c2nnc[nH]2)cc1 [Compound 47, 4-(4-chlorobenzyl)-2-(2-chloropyridin-4-yl)-5-(4H-1,2,4-triazol-3-yl)thiazole] | 100 to 1000 | > 1000
13 | N#Cc1cc(-c2cc([C@@H](O)c3ccc(Cl)cc3)c(-c3nnc[nH]3)s2)ccn1 [Compound 48] | 100 to 1000 | 100 to 1000
14 | OCCNc1cc(-c2cc(C(O)c3ccc(Cl)cc3)c(-c3nnc[nH]3)s2)ccn1 (stereo not shown) [Compound 49, 2-({4-[4-[(4-chlorophenyl)(hydroxy)methyl]-5-(4H-1,2,4-triazol-3-yl)-2-thienyl]pyridin-2-yl}amino)ethanol] | > 1000 | > 1000
15 | Cc1nn2ccc(CNC(=O)c3cnccn3)cc2c1-c1nc(Cc2ccc(Cl)cc2)c(-c2nnc[nH]2)s1 [Compound 50, N-({3-[4-(4-chlorobenzyl)-5-(4H-1,2,4-triazol-3-yl)-1,3-thiazol-2-yl]-2-methylpyrazolo[1,5-a]pyridin-5-yl}methyl)pyrazine-2-carboxamide] | < 100 | < 100
16 | Clc1ccc(C(c2cc(-c3ccncc3)sc2-c2nnc[nH]2)N2CCC2)cc1 (stereo not shown) [Compound 51] | < 100 | > 1000
17 | OC(c1ccc(Cl)cc1)c1cc(-c2ccncc2)sc1-c1nnc[nH]1 (stereo not shown) [Compound 52] | < 100 | > 1000
18 | Clc1ccc(Cc2nc(-c3ccnc4[nH]ccc34)sc2-c2ncn[nH]2)cc1 [Compound 53] | 100 to 1000 | 100 to 1000
19 | Cc1nn2ccc(CNCCN)cc2c1-c1nc(Cc2ccc(Cl)cc2)c(-c2nnc[nH]2)s1 [Compound 54] | 100 to 1000 | 100 to 1000

Row | Compound | IC50 (Human PI3K beta) [nM] | IC50 (Human PI3K alpha) [nM]
20 | O[C@@H](c1ccc(Cl)cc1)c1cc(-c2ccnnc2)sc1-c1nnc[nH]1 [Compound 55] | > 1000 | > 1000
21 | CC(=O)Nc1cc(-c2nc(Cc3ccc(Cl)cc3)c(-c3ncn[nH]3)s2)ccn1 [Compound 56, N-{4-[4-(4-chlorobenzyl)-5-(4H-1,2,4-triazol-3-yl)-1,3-thiazol-2-yl]pyridin-2-yl}acetamide] | 100 to 1000 | 100 to 1000
22 | OC(c1ccc(Cl)cc1)c1cc(-c2ccnc3sccc23)sc1-c1nnc[nH]1 (stereo not shown) [Compound 57] | 100 to 1000 | 100 to 1000
23 | CN1CCc2cc(Cl)ccc2C1c1cc(-c2ccncc2)sc1-c1ccn[nH]1 (stereo not shown) [Compound 58, 6-Chloro-2-methyl-1-[2-(1H-pyrazol-5-yl)-5-pyridin-4-yl-3-thienyl]-1,2,3,4-tetrahydroisoquinoline] | 100 to 1000 | > 1000
24 | O[C@H](c1ccc(Cl)cc1)c1cc(-c2ccnnc2)sc1-c1nnc[nH]1 [Compound 59] | < 100 | > 1000
25 | CC(=O)Nc1cc(-c2nc(C(O)c3ccc(Cl)cc3)c(-c3ncc[nH]3)s2)ccn1 (stereo not shown) [Compound 60, N-{4-[4-[(4-chlorophenyl)(hydroxy)methyl]-5-(1H-imidazol-2-yl)-1,3-thiazol-2-yl]pyridin-2-yl}acetamide] | 100 to 1000 | > 1000
26 | Cc1nn2ccc(CN3CCC(N)CC3)cc2c1-c1nc(Cc2ccc(Cl)cc2)c(-c2nnc[nH]2)s1 [Compound 61] | 100 to 1000 | 100 to 1000
27 | CNc1cc(-c2cc(C(O)c3ccc(Cl)cc3)c(-c3nnc[nH]3)s2)ccn1 (stereo not shown) [Compound 62] | 100 to 1000 | > 1000
28 | CNc1cc(-c2nc(Cc3ccc(Cl)cc3)c(-c3nnc[nH]3)s2)ccn1 [Compound 63] | > 1000 | > 1000
29 | O=C1CCc2c(-c3cc(C(O)c4ccc(Cl)cc4)c(-c4nnc[nH]4)s3)ccnc2N1 (stereo not shown) [Compound 64] | 100 to 1000 | 100 to 1000
30 | CN(C)[C@@H](c1ccc(Cl)cc1)c1cc(-c2ccncc2)sc1-c1nnc[nH]1 [Compound 65] | < 100 | > 1000
31 | Clc1ccc(Cc2nc(-c3ccncc3)sc2-c2cnc[nH]2)cc1 [Compound 66, 4-(4-chlorobenzyl)-5-(1H-imidazol-5-yl)-2-(pyridin-4-yl)thiazole] | < 100 | > 1000
32 | CC(=O)Nc1cc(-c2nc(Cc3ccccc3Cl)c(-c3ncc[nH]3)s2)ccn1 [Compound 67] | > 1000 | 100 to 1000
33 | OC(c1ccc(Cl)cc1)c1cc(-c2ncncc2F)sc1-c1nnc[nH]1 (stereo not shown) [Compound 68] | 100 to 1000 | > 1000
34 | CC(=O)Nc1cc(-c2sc(-c3nnc[nH]3)c(Cc3ccc(Cl)cc3)c2C#N)ccn1 [Compound 71, N-{4-[4-(4-chlorobenzyl)-3-cyano-5-(4H-1,2,4-triazol-3-yl)-2-thienyl]pyridin-2-yl}acetamide] | 100 to 1000 | 100 to 1000
35 | Cc1nn2ccc(CN3CCNCC3)cc2c1-c1nc(Cc2ccc(Cl)cc2)c(-c2nnc[nH]2)s1 [Compound 72, 3-[4-(4-chlorobenzyl)-5-(4H-1,2,4-triazol-3-yl)-1,3-thiazol-2-yl]-2-methyl-5-(piperazin-1-ylmethyl)pyrazolo[1,5-a]pyridine] | 100 to 1000 | 100 to 1000
36 | CC(=O)Nc1cc(-c2nc(Cc3ccc(Cl)cc3)c(-c3ncc[nH]3)s2)ccn1 [Compound 73] | 100 to 1000 | > 1000
37 | CC(=O)Nc1cc(-c2sc(C(=O)O)c(Cc3ccc(Cl)cc3)c2C#N)ccn1 [Compound 74] | 100 to 1000 | 100 to 1000
38 | Nc1cc(-c2cc(C(O)c3ccc(Cl)cc3)c(-c3nnc[nH]3)s2)ccn1 (stereo not shown) [Compound 75] | < 100 | > 1000
